Source: BindingDB's records for doi:10.7270/Q2N014XN (Srmlsc, 2007)
pIC50: −log10 of the molar value. Structures can show the parent of a compound that is named as a salt.

The compounds below were run against T1, Diphosphomevalonate decarboxylase (Streptococcus pneumoniae serotype 2 (strain D39 / NCTC 7466), UniProt A0A0H2ZN59) (assay: diphosphomevalonate decarboxylase inhibition dose curves – biochemical, PK/LDH-coupled NADH fluorescence, hexokinase coupling counter-screen, dose response (AID 550)). Settings: not given.
T1 sequence (A0A0H2ZN59 whole entry): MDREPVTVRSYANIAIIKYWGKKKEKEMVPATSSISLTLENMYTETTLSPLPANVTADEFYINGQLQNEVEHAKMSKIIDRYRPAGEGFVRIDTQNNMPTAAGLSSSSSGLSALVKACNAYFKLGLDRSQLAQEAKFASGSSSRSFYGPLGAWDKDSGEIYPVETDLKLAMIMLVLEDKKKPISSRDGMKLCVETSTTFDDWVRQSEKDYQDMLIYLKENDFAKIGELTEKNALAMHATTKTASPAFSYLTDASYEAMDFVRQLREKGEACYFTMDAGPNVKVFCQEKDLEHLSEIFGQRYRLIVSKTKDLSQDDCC
Cc1ccccc1CN1CCN(S(=O)(=O)c2ccc(F)cc2)CC1 [1-(4-fluorophenyl)sulfonyl-4-(2-methylbenzyl)piperazine] gave a pIC50 of less than 2.00.
Compound Cc1nc2nc(C)c(CCC(=O)N3CCOCC3)c(C)n2n1 [1-(4-morpholinyl)-3-(2,5,7-trimethyl-[1,2,4]triazolo[1,5-a]pyrimidin-6-yl)-1-propanone] has a pIC50 of less than 2.00.
Work on COc1ccc2c(c1)-c1ccccc1S(=O)(=O)N2C(C)=O [1-(5,5-diketo-9-methoxy-benzo[c][1,2]benzothiazin-6-yl)ethanone] yielded a pIC50 of 4.10.
COc1cc2c(cc1OC)CN(C(=O)CSc1nnc3scc(-c4ccccc4)n13)CC2 [1-(6,7-dimethoxy-3,4-dihydro-1H-isoquinolin-2-yl)-2-[(5-phenyl-3-thiazolo[2,3-c][1,2,4]triazolyl)thio]ethanone] was tested, and the pIC50 was 3.23.
Cc1c(NC(=O)C2CCN(S(=O)(=O)c3ccccc3)CC2)c(=O)n(-c2ccccc2)n1C [1-(benzenesulfonyl)-N-(1,5-dimethyl-3-oxo-2-phenyl-4-pyrazolyl)-4-piperidinecarboxamide] showed a pIC50 of less than 2.00.
O=C1C(Cl)=C(NCC2CCCO2)C(=O)N1Cc1ccccc1 (configuration not stated) [1-Benzyl-3-chloro-4-[(tetrahydro-furan-2-ylmethyl)-amino]-pyrrole-2,5-dione] gave a pIC50 of less than 2.00.
Work on COc1cc(-c2nc3cnccc3n2C)cc(OC)c1OC [1-Methyl-2-(3,4,5-trimethoxy-phenyl)-1H-imidazo[4,5-c]pyridine] yielded a pIC50 of less than 2.00.
Work on CN(C)C(=O)N1CCC(C(=O)NCc2cccs2)CC1 [1-N,1-N-dimethyl-4-N-(thiophen-2-ylmethyl)piperidine-1,4-dicarboxamide] yielded a pIC50 of less than 2.00.
With COCCn1c(C)cc(C(=O)COc2nc3ccccc3nc2C)c1C [1-[1-(2-methoxyethyl)-2,5-dimethyl-3-pyrrolyl]-2-[(3-methyl-2-quinoxalinyl)oxy]ethanone] the pIC50 was 2.52.
Compound COc1ccc(CCn2c(N)c(S(=O)(=O)c3cccs3)c3nc4ccccc4nc32)cc1OC [1-[2-(3,4-dimethoxyphenyl)ethyl]-3-thiophen-2-ylsulfonyl-2-pyrrolo[3,2-b]quinoxalinamine] has a pIC50 of 3.98.
For O=C1NC(=O)C(CC(=O)N(c2ccccc2)C2(C(=O)NC3CCCC3)CCCCC2)N1 (configuration not stated) [1-[2-[2,5-bis(oxidanylidene)imidazolidin-4-yl]ethanoyl-phenyl-amino]-N-cyclopentyl-cyclohexane-1-carboxamide], the pIC50 was less than 2.00.
Work on Cc1ccc(OCCn2c(C)c(C=Nn3cnnc3)c3ccccc32)cc1 [1-[2-methyl-1-[2-(4-methylphenoxy)ethyl]-3-indolyl]-N-(1,2,4-triazol-4-yl)methanimine] yielded a pIC50 of less than 2.00.
In the case of CCN(CC)CCCN(Cc1cc2cc3c(cc2[nH]c1=O)OCO3)C(=O)Nc1ccccc1OC [1-[3-(diethylamino)propyl]-3-(2-methoxyphenyl)-1-[(6-oxidanylidene-5H-[1,3]dioxolo[4,5-g]quinolin-7-yl)methyl]urea], the pIC50 was 4.47.
FC(F)(F)c1cc(-c2ccco2)nc(-n2nnc3ccccc32)n1 [1-[4-(2-furanyl)-6-(trifluoromethyl)-2-pyrimidinyl]benzotriazole] gave a pIC50 of 4.95.
With CCc1c(C)c(C#N)c2nc3ccccc3n2c1Nc1c(C)n(C)n(-c2ccccc2)c1=O [1-[(1,5-dimethyl-3-oxidanylidene-2-phenyl-pyrazol-4-yl)amino]-2-ethyl-3-methyl-pyrido[1,2-a]benzimidazole-4-carbonitrile] the pIC50 was less than 2.00.
For COc1ccc(C(c2nnnn2CC2CCCO2)N2CCN(c3ccccc3)CC2)cc1 (configuration not stated) [1-[(4-methoxyphenyl)-[1-(2-oxolanylmethyl)-5-tetrazolyl]methyl]-4-phenylpiperazine], the pIC50 was less than 2.00.
Compound Cc1ccc2cc3cc(C(=O)N4CCCCCC4)oc3nc2c1 [1-azepanyl-(7-methyl-2-furo[2,3-b]quinolinyl)methanone] has a pIC50 of 4.24.
CCn1cc(C(=O)NCc2ccco2)c(=O)c2cc(F)c(N3CCN(C(=O)c4ccco4)CC3)cc21 [1-ethyl-6-fluoranyl-7-[4-(furan-2-ylcarbonyl)piperazin-1-yl]-N-(furan-2-ylmethyl)-4-oxidanylidene-quinoline-3-carboxamide] showed a pIC50 of 4.78.
With COCCn1cc(C(=O)NCCCN2CCC(C)CC2)c2c3ccccc3n(C)c2c1=O [1-keto-2-(2-methoxyethyl)-9-methyl-N-[3-(4-methylpiperidino)propyl]-beta-carboline-4-carboxamide] the pIC50 was 4.57.
In the case of Cc1ccsc1C1C(C(=O)O)c2ccccc2C(=O)N1C (configuration not stated) [1-keto-2-methyl-3-(3-methyl-2-thienyl)-3,4-dihydroisoquinoline-4-carboxylic acid], the pIC50 was less than 2.00.
Compound O=C(c1noc2c1CCCC2)N1CCCCC1 [1-piperidinyl(4,5,6,7-tetrahydro-1,2-benzoxazol-3-yl)methanone] has a pIC50 of less than 2.00.
CC1(C)C(C=C(Cl)Cl)C1C(=O)N1CCN(c2ccccc2)CC1 (configuration not stated) [1-{[3-(2,2-dichlorovinyl)-2,2-dimethylcyclopropyl]carbonyl}-4-phenylpiperazine] showed a pIC50 of less than 2.00.
c1ccc2c(c1)nnn2Cc1nnc2sc(-c3ccc4c(c3)OCCO4)nn12 [1-{[6-(2,3-dihydro-1,4-benzodioxin-6-yl)[1,2,4]triazolo[3,4-b][1,3,4]thiadiazol-3-yl]methyl}-1H-1,2,3-benzotriazole] showed a pIC50 of 4.08.
Nc1nc(N)c2sc3nc4c(cc3c2n1)CCC4 [2,3-Dihydro-1H-9-thia-5,7,10-triaza-cyclopenta[b]fluorene-6,8-diamine] was tested, and the pIC50 was less than 2.00.
With Cc1cc(C)c(S(=O)(=O)NCc2cn3c(C)csc3n2)cc1C [2,4,5-trimethyl-N-[(3-methyl-6-imidazo[2,1-b]thiazolyl)methyl]benzenesulfonamide] the pIC50 was less than 2.00.
Work on Cc1cc(O)cc(C)n1 [2,6-dimethyl-1H-pyridin-4-one] yielded a pIC50 of less than 2.00.
Compound Cc1cc(C)c2c(n1)nn1c(N3CCN(c4ccccc4)CC3)cc(C)nc21 [2,8,10-trimethyl-4-(4-phenyl-1-piperazinyl)pyrido[2,3]pyrazolo[2,4-a]pyrimidine] has a pIC50 of 4.89.
For O=C(CSc1nnnn1Cc1ccccc1)NCCc1ccccc1 [2-(1-Benzyl-1H-tetrazol-5-ylsulfanyl)-N-phenethyl-acetamide], the pIC50 was less than 2.00.
O=C(NCc1ccco1)c1ccccc1NS(=O)(=O)c1ccc2c(c1)OCCO2 [2-(2,3-dihydro-1,4-benzodioxin-6-ylsulfonylamino)-N-(2-furanylmethyl)benzamide] showed a pIC50 of 4.37.
Cc1ccc(C)c(-c2nc3cc(N)ccc3o2)c1 [2-(2,5-Dimethyl-phenyl)-benzooxazol-5-ylamine] was tested, and the pIC50 was 5.22.
With CCOc1ccccc1OCC(=O)Nc1ccc(N2CCCCC2)cc1 [2-(2-ethoxyphenoxy)-N-(4-piperidin-1-ylphenyl)acetamide] the pIC50 was less than 2.00.
Cc1oc2cc(O)ccc2c(=O)c1N1C(=O)c2ccccc2C1=O [2-(2-methyl-7-oxidanyl-4-oxidanylidene-chromen-3-yl)isoindole-1,3-dione] showed a pIC50 of 4.30.
With Cc1ccccc1-c1nc2cc(N)ccc2o1 [2-(2-methylphenyl)-1,3-benzoxazol-5-amine] the pIC50 was 4.99.
O=c1c2ccccc2sn1-c1cc(S(=O)(=O)N2CCOCC2)ccc1N1CCOCC1 [2-(2-morpholin-4-yl-5-morpholin-4-ylsulfonyl-phenyl)-1,2-benzothiazol-3-one] showed a pIC50 of 4.81.
For CCCOC(=O)Cc1n[nH]c(=O)[nH]c1=O [2-(3,5-dioxo-2H-1,2,4-triazin-6-yl)acetic acid propyl ester], the pIC50 was less than 2.00.
In the case of CCc1nnc(NC(=O)CSc2nnc(COc3ccccc3)n2Cc2ccccc2)s1 [2-(4-Benzyl-5-phenoxymethyl-4H-[1,2,4]triazol-3-ylsulfanyl)-N-(5-ethyl-[1,3,4]thiadiazol-2-yl)-acetamide], the pIC50 was less than 2.00.
In the case of CCc1nnc2sc(-c3ccc(NC(=O)CSc4ccc(Cl)cc4)cc3)nn12 [2-(4-chlorophenyl)sulfanyl-N-[4-(3-ethyl-[1,2,4]triazolo[3,4-b][1,3,4]thiadiazol-6-yl)phenyl]acetamide], the pIC50 was 4.40.
CCOC(=O)COc1ccc2nsnc2c1Cl [2-(4-chloropiazthiol-5-yl)oxyacetic acid ethyl ester] was tested, and the pIC50 was less than 2.00.
Compound CCOc1ccc(-c2nnc(-c3ccncc3)o2)cc1 [2-(4-ethoxyphenyl)-5-pyridin-4-yl-1,3,4-oxadiazole] has a pIC50 of 4.28.
With CCOC(=O)c1cc2nc(Nc3ccc(OC)cc3)sc2s1 [2-(4-methoxyanilino)-5-thieno[3,2-d]thiazolecarboxylic acid ethyl ester] the pIC50 was 4.35.
Work on COc1ccc(-c2cc(C(=O)OCC(=O)N(C)C)c3ccccc3n2)cc1 [2-(4-methoxyphenyl)-4-quinolinecarboxylic acid [2-(dimethylamino)-2-oxoethyl] ester] yielded a pIC50 of 4.39.
For Cc1ccc(-n2sc3ccccc3c2=O)cc1S(=O)(=O)N1CCCCC1 [2-(4-methyl-3-piperidin-1-ylsulfonyl-phenyl)-1,2-benzothiazol-3-one], the pIC50 was 5.43.
In the case of CCCc1nnc(NC(=O)CN2CCOCC2)s1 [2-(4-morpholinyl)-N-(5-propyl-1,3,4-thiadiazol-2-yl)acetamide;hydrochloride], the pIC50 was less than 2.00.

Same assay, conditions: inactive by the depositor's call
CCn1nc(-c2ccccc2)nc2c(=O)n(C)c(=O)nc1-2 [1-Ethyl-6-methyl-3-phenyl-1H-pyrimido[5,4-e][1,2,4]triazine-5,7-dione] was tested, and the pIC50 was 4.70.
Compound Clc1cccc(-c2ccc(C=Nn3cnnc3)o2)c1 [1-[5-(3-chlorophenyl)-2-furanyl]-N-(1,2,4-triazol-4-yl)methanimine] has a pIC50 of 4.00.
CCn1nc(-c2cccs2)nc2c(=O)n(C)c(=O)nc1-2 [1-ethyl-6-methyl-3-thiophen-2-yl-pyrimido[5,4-e][1,2,4]triazine-5,7-dione] showed a pIC50 of 5.33.
Compound Cc1cc(C)c2c(=O)n(CC(=O)NCCCN3CCN(c4ccccc4F)CC3)sc2n1 [2-(4,6-dimethyl-3-oxidanylidene-[1,2]thiazolo[5,4-b]pyridin-2-yl)-N-[3-[4-(2-fluorophenyl)piperazin-1-yl]propyl]ethanamide] has a pIC50 of 4.44.
